Laboratory results: patent US20040220221A1, “Treatment of degenerative diseases” (priority 2002, published 2004)

Tested on: experimentally induced osteoarthritis
Test: experimentally induced osteoarthritis in guinea pigs (partial medial meniscectomy), joint histology
Assay type: in vivo, Dunkin Hartley guinea pigs
Conditions: 1, 3 and 10 mg/kg/day orally by gavage, 10 weeks, operated right hind leg joint, blinded pathologist
Description: The following description gives evidence on which the invention is based.
Dunkin Hartley guinea pigs(apart from the blank control) were anaesthetised and underwent partial medial meniscectomy in the right hind leg. 3 doses of +mefloquine, (1 mg/kg/day, 3 mg/kg/day and 10 mg/kg/day) were administered orally by gavage to groups of 10 animals as well as a vehicle control. The vehicle was 0.2% methylcellulose and 0.4% Tween 80 in bidistilled water for the mefloquine groups. The administration volume was 2 mL/kg.
The animals were followed for 10 weeks. Terminal blood samples were taken for drug levels. Histology was performed on the joint, which was operated on, and an assessment of the cartilage structure, cell proliferation and loss of proteoglycans was made. The histology was performed by a blinded pathologist.

O[C@H](c1cc(C(F)(F)F)nc2c(C(F)(F)F)cccc12)[C@@H]1CCCCN1 [+mefloquine, (+)-erythro-mefloquine]
degeneration of cartilage (histology: cartilage structure, cell proliferation, loss of proteoglycans): prevents the degeneration of cartilage
